In brackets after ≈: the same amount, converted by molar mass.
How the values were obtained:
S. aureus RN450 = experiment: In vitro MIC assay, S. aureus RN450; assay type: cell-based; settings: Staphylococcus aureus, broth microdilution, 35° C., 18-24 hours
S. aureus MRSA5 = experiment: In vitro MIC assay, S. aureus MRSA5; assay type: cell-based; settings: Staphylococcus aureus, broth microdilution, 35° C., 18-24 hours
E. coli MG 1655 DWAK = experiment: In vitro MIC assay, E. coli MG 1655 DWAK; assay type: cell-based; settings: Escherichia coli, MG1655DWAK; broth microdilution, 35° C., 18-24 hours
Method: The following assay was used to determine the efficacy of tetracycline compounds against common bacteria. Serial dilutions of compounds were prepared in microdilution plates using a Tecan robotic workstation. Mueller Hinton broth cultures of gram negative and gram positive strains were grown or adjusted to match the turbidity of a 0.5 McFarland standard. 1:200 dilutions were made in appropriate broth (cation supplemented Mueller Hinton broth or Haemophilus test medium) to allow a final inoculum of 1×10^5 cfu. Lysed horse blood was used to supplement broth for testing S. pneumoniae. The plates were incubated at 35° C. in ambient air for 18-24 hours, read spectrophotometrically, and checked manually for evidence of bacterial growth. Serial dilutions of compounds were also added to Brucella agar supplemented with laked sheep blood for P. acnes tests. A standard inoculum was transferred to the plate using a stainless steel replicator. After 48 hours of anaerobic incubation at 35° C. plates were examined. The MIC was defined as the lowest concentration of the tetracycline compound that inhibits growth. Table 3 gives the MIC (μg/mL) of selected substituted tetracycline compounds against a variety of gram positive and gram negative bacteria.

COS-1 or CHO cell = experiment: Mammalian cell cytotoxicity assay (Resazurin; Alamar Blue); assay type: cell-based; settings: COS-1 or CHO cells, 24 hour incubation
Method: To predict the in vivo risks associated with the compounds of the invention, a soluble, non-toxic redox dye (“Resazurin”; Alamar Blue) was used to assess a compound's effect on cellular metabolism. COS-1 or CHO cell suspensions were prepared, seeded into 96-well black-walled microtiter plates, and incubated overnight at 37° C., in 5% CO2 and approximately 95% humidity. On the next day, serial dilutions of test drug were prepared and transferred to cell plates. Following a 24 hour incubation period, the media/drug was aspirated, and 50 μL of resazurin was added. After a 2 hour incubation, fluorescence measurements were taken (excitation […], emission 590 nm) and toxic effects in treated versus control cells were compared based on the degree of fluorescence in each well.

E. coli translation = experiment: In vitro translation assay for inhibition of bacterial protein synthesis (E. coli S30 Extract System, luciferase); assay type: biochemical; settings: 37° C., 1 hour, luciferase luminescence
Method: As a further measure of antibacterial activity, an E. coli S30 Extract System was used to quantitate inhibition of E. coli translation by tetracycline derivatives. This system contained all required components for translation, including a nucleic acid template which, when translated, produces functional luciferase. The reactions were set up with E. coli S30 extract, amino acids, DNA template and selected tetracycline compounds at concentrations of 100, 50, 25, 10, 5, and 1 μg/ml. The reactions were incubated at 37° C. for 1 hour and analyzed by adding the reaction mix to Steady-Glo Luciferase Assay substrate (Promega, Madison Wis.). Luminescence was measured with the Wallac Victor5 plate reader and inhibition is calculated by comparing luciferase activity in experimental reactions versus controls.

E. coli (ATCC 25922) = experiment: In vitro MIC assay, E. coli (ATCC 25922); assay type: cell-based; settings: Escherichia coli, ATCC25922; broth microdilution, 35° C., 18-24 hours
S. pneumoniae 157E = experiment: In vitro MIC assay, S. pneumoniae 157E; assay type: cell-based; settings: Streptococcus pneumoniae, broth supplemented with lysed horse blood, 35° C., 18-24 hours
P. aeruginosa K1033 = experiment: In vitro MIC assay, P. aeruginosa K1033; assay type: cell-based; settings: Pseudomonas aeruginosa, broth microdilution, 35° C., 18-24 hours
[1] = test system: H. influenza (ATCC 49247); experiment: In vitro MIC assay, H. influenza (ATCC 49247); assay type: cell-based; settings: read-out: MIC H. influenza (ATCC 49247)
[2] = test system: Mouse 3T3 fibroblast cells; experiment: Phototoxicity assay (neutral red); assay type: cell-based; settings: 3T3 cells; for phototoxicity at 30 μM, incubated in the UV light: UV light 1.6-1.8 mW/cm^2, 30 μM
Method: Mouse 3T3 fibroblast cells were harvested and plated at a concentration of 1×10^5 cells/mL. Drug dilutions were made in HBSS and added to the plates. Duplicate plates were then incubated in the dark (for controls), or under UV light (meter reading of 1.6-1.8 mW/cm^2) for 50 minutes. Cells were then washed with HBSS, fresh medium was added, and plates were then incubated overnight. The following day, neutral red was added as an indicator of cell viability and plates were incubated for an additional 3 hours. Cells were then washed with HBSS and a solution of 50% EtOH, 10% glacial acetic acid is added. After a 20 minute incubation period, plates absorbance at 535 nm were read using a Wallac Victor 5 spectrophotometer. The phototoxicity in light-treated and control cultures was then compared.

S. aureus RN4250 = experiment: In vitro MIC assay, S. aureus RN4250; assay type: cell-based; settings: Staphylococcus aureus, broth microdilution, 35° C., 18-24 hours

| Structure (SMILES) | MIC (S. aureus RN450) | MIC (S. aureus MRSA5) | MIC (E. coli MG 1655 DWAK) | cytotoxicity at 75 μg/mL (COS-1 or CHO cell) | IC20 (E. coli translation) | IC50 (E. coli translation) | MIC (E. coli (ATCC 25922)) | MIC (S. pneumoniae 157E) | MIC (P. aeruginosa K1033) | MIC [1] | phototoxicity at 30 μM, incubated in the UV light [2] | phototoxicity at 150 μM, incubated in the dark [2] | MIC (S. aureus RN4250) |
| --- | --- | --- | --- | --- | --- | --- | --- | --- | --- | --- | --- | --- | --- |
| CN(C)c1cc(C(=O)O)cc2c1CC1CC3[C@@H](N(C)C)C(O)=C(C(N)=O)C(=O)[C@@]3(O)C(O)=C1C2=O (stereo partly drawn) [G] | 44 to 64 mg/L (≈ 90.6 to 132 µM) | 44 to 64 mg/L (≈ 90.6 to 132 µM) | 44 to 64 mg/L (≈ 90.6 to 132 µM) | minimal cytotoxicity | < 100 µM | < 100 µM | 44 to 64 mg/L (≈ 90.6 to 132 µM) | 44 to 64 mg/L (≈ 90.6 to 132 µM) | 44 to 64 mg/L (≈ 90.6 to 132 µM) | 44 to 64 mg/L (≈ 90.6 to 132 µM) | minimally phototoxic | not to be appreciably phototoxic | 44 to 64 mg/L (≈ 90.6 to 132 µM) |
| CN(C)c1cc2cc(-c3ccc(N)cc3)oc2c2c1CC1CC3[C@H](N(C)C)C(O)=C(C(N)=O)C(=O)[C@@]3(O)C(O)=C1C2=O (stereo partly drawn) [Q] | 0 to 21 mg/L | 0 to 21 mg/L |  |  | < 100 µM | < 100 µM |  | 22 to 43 mg/L (≈ 38.4 to 75.1 µM) |  | 44 to 64 mg/L (≈ 76.8 to 112 µM) |  |  | 0 to 21 mg/L |
| NC(=O)C1=C(O)CC2CC3Cc4ccccc4C(=O)C3=C(O)[C@]2(O)C1=O (stereo partly drawn) [F] | 0 to 21 mg/L | 0 to 21 mg/L | 0 to 21 mg/L |  | < 100 µM | < 100 µM | 44 to 64 mg/L (≈ 124 to 180 µM) | 22 to 43 mg/L (≈ 61.9 to 121 µM) | 0 to 21 mg/L | 0 to 21 mg/L |  | not to be appreciably phototoxic | 0 to 21 mg/L |
| CN(C)c1cc2c(c3c1CC1CC4[C@H](N(C)C)C(O)=C(C(N)=O)C(=O)[C@@]4(O)C(O)=C1C3=O)OC(=O)N(CC(C)(C)C)C2 (stereo partly drawn) [P] | 44 to 64 mg/L (≈ 75.5 to 110 µM) | 44 to 64 mg/L (≈ 75.5 to 110 µM) |  | minimal cytotoxicity |  |  |  | 44 to 64 mg/L (≈ 75.5 to 110 µM) |  | 44 to 64 mg/L (≈ 75.5 to 110 µM) | minimally phototoxic |  | 44 to 64 mg/L (≈ 75.5 to 110 µM) |
| CC(=O)c1cc2c(c(N(C)C)c1)CC1CC3[C@H](N(C)C)C(O)=C(C(N)=O)C(=O)[C@@]3(O)C(O)=C1C2=O (stereo partly drawn) [H] | 44 to 64 mg/L (≈ 91 to 132 µM) | 44 to 64 mg/L (≈ 91 to 132 µM) | 22 to 43 mg/L (≈ 45.5 to 88.9 µM) | minimal cytotoxicity | < 100 µM | < 100 µM | 44 to 64 mg/L (≈ 91 to 132 µM) | 44 to 64 mg/L (≈ 91 to 132 µM) | 22 to 43 mg/L (≈ 45.5 to 88.9 µM) | 44 to 64 mg/L (≈ 91 to 132 µM) |  | not to be appreciably phototoxic | 44 to 64 mg/L (≈ 91 to 132 µM) |
| CN(C)[C@@H]1C(O)=C(C(N)=O)C(=O)[C@@]2(O)C(O)=C3C(=O)c4c(cccc4OS(=O)(=O)C(F)(F)F)CC3CC12 (stereo partly drawn) [O] | 22 to 43 mg/L (≈ 40.3 to 78.7 µM) | 22 to 43 mg/L (≈ 40.3 to 78.7 µM) | 0 to 21 mg/L |  | < 100 µM | < 100 µM | 44 to 64 mg/L (≈ 80.5 to 117 µM) | 44 to 64 mg/L (≈ 80.5 to 117 µM) | 0 to 21 mg/L | 44 to 64 mg/L (≈ 80.5 to 117 µM) |  |  | 22 to 43 mg/L (≈ 40.3 to 78.7 µM) |
| CN(C)c1cccc2c1CC1CC3[C@@H](N(C)C)C(O)=C(C(N)=O)C(=O)[C@@]3(O)C(O)=C1C2=O (stereo partly drawn) [C] | 0 to 21 mg/L | 44 to 64 mg/L (≈ 99.7 to 145 µM) | 0 to 21 mg/L | minimal cytotoxicity | > 100 µM | > 100 µM | 44 to 64 mg/L (≈ 99.7 to 145 µM) | 0 to 21 mg/L | 0 to 21 mg/L | 22 to 43 mg/L (≈ 49.8 to 97.4 µM) |  | not to be appreciably phototoxic | 0 to 21 mg/L |
| CN(C)c1cccc2c1CC1CC3CC(O)=C(C(N)=O)C(=O)[C@@]3(O)C(O)=C1C2=O (stereo partly drawn) [E] | 0 to 21 mg/L | 0 to 21 mg/L | 0 to 21 mg/L |  | > 100 µM | < 100 µM | 44 to 64 mg/L (≈ 110 to 161 µM) | 44 to 64 mg/L (≈ 110 to 161 µM) | 0 to 21 mg/L | 22 to 43 mg/L (≈ 55.2 to 108 µM) |  | not to be appreciably phototoxic | 0 to 21 mg/L |
| CC(=O)c1cccc2c1C(=O)C1=C(O)[C@]3(O)C(=O)C(C(N)=O)=C(O)[C@@H](N(C)C)C3CC1C2 (stereo partly drawn) [N] | 22 to 43 mg/L (≈ 49.9 to 97.6 µM) | 44 to 64 mg/L (≈ 99.9 to 145 µM) | 0 to 21 mg/L | minimal cytotoxicity | < 100 µM | < 100 µM | 44 to 64 mg/L (≈ 99.9 to 145 µM) | 44 to 64 mg/L (≈ 99.9 to 145 µM) | 0 to 21 mg/L | 44 to 64 mg/L (≈ 99.9 to 145 µM) |  |  | 44 to 64 mg/L (≈ 99.9 to 145 µM) |
| CN(C)c1cc(C(=O)O)cc2c1CC1CC3[C@H](N(C)C)C(O)=C(C(N)=O)C(=O)[C@@]3(O)C(O)=C1C2=O (stereo partly drawn) [D] | 44 to 64 mg/L (≈ 90.6 to 132 µM) | 44 to 64 mg/L (≈ 90.6 to 132 µM) | 44 to 64 mg/L (≈ 90.6 to 132 µM) | minimal cytotoxicity | < 100 µM | < 100 µM | 44 to 64 mg/L (≈ 90.6 to 132 µM) | 44 to 64 mg/L (≈ 90.6 to 132 µM) | 44 to 64 mg/L (≈ 90.6 to 132 µM) | 44 to 64 mg/L (≈ 90.6 to 132 µM) | minimally phototoxic | not to be appreciably phototoxic | 44 to 64 mg/L (≈ 90.6 to 132 µM) |
| CC1CCN(c2cccc3c2C(=O)C2=C(O)[C@]4(O)C(=O)C(C(N)=O)=C(O)[C@@H](N(C)C)C4CC2C3)CC1 (stereo partly drawn) [M] | 44 to 64 mg/L (≈ 88.8 to 129 µM) | 44 to 64 mg/L (≈ 88.8 to 129 µM) | 0 to 21 mg/L | minimal cytotoxicity | < 100 µM | < 100 µM | 44 to 64 mg/L (≈ 88.8 to 129 µM) | 22 to 43 mg/L (≈ 44.4 to 86.8 µM) | 0 to 21 mg/L | 0 to 21 mg/L | minimally phototoxic | not to be appreciably phototoxic | 44 to 64 mg/L (≈ 88.8 to 129 µM) |
